{"source": "patent US9034861B2", "about": "“MEK inhibitors useful in the treatment of diseases” (Allomek Therapeutics LLC, priority 2009, dated 2015)", "key": {"[1]": {"target": "T1, recombinant full-length human GST-MEK1 (Homo sapiens, UniProt Q02750)", "T1 construct": "Purified recombinant full-length human GST-MEK1; GST; purchased Cell Signaling Technology, Inc (Beverly, Mass., USA)", "T1 sequence (Q02750 whole entry)": "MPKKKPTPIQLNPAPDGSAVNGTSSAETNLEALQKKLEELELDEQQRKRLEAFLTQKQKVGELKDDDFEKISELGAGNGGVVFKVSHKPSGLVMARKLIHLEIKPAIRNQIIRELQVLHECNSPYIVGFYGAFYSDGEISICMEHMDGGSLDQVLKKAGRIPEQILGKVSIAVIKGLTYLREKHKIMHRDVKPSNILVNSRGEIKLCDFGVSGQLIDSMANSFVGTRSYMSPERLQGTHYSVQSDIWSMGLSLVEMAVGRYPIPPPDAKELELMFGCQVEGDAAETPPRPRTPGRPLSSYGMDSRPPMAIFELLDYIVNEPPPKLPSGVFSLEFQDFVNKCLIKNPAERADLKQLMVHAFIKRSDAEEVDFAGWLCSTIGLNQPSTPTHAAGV", "assay": "MEK Enzyme Inhibitory Assay (ADP-Glo)", "type": "biochemical", "procedure": "Materials and preparation of reagents: Purified recombinant full-length human GST-MEK1 was purchased from Cell Signaling Technology, Inc (Beverly, Mass., USA). MAP kinase substrate Erk1/Erk2 peptide was purchased from Enzo Life Sciences (Plymouth Meeting, Pa., USA).\nDetermination of enzymatic activity: Compounds were diluted three-fold in dimethylsulfoxide (DMSO) ranging from 1 mM to 1.37 μM concentration. A typical 20-microliter assay contained 80 ng MEK1, 4 μg Erk1/Erk2 peptide, 100 μM or 1 mM ATP, 1 μM to 1.37 nM test compound in 1× assay buffer containing 5 mM MOPS, pH 7.2, 2.5 mM β-glycerophosphate, 1 mM EGTA, 0.4 mM EDTA, 5 mM MgCl2, 0.05 mM DTT. Enzyme reaction was incubated at room temperature for 90 minutes. At the end of kinase reaction, 20 μL of ADP-Glo reagent (Promega, Madison, Wis., USA) was added and incubated at room temperature for 40 minutes. Forty μL of kinase detection reagent (Promega) was added and incubated at room temperature for 1 h. Chemiluminescence was read and IC50s calculated using SoftMax software."}, "[2]": {"system": "Caki-1 cells", "assay": "Proliferation / cell survival assay (CellTiterGlo, 72 hour)", "type": "cell-based", "details": "Homo sapiens; Caki (Caki-1), WT; average of two experiments; read-out: IC50, in vitro cell survival / proliferation", "procedure": "(§1) In vitro studies of variety of tumor cells lines with prevalent mutations in RAS/RAF genes were performed for anti-proliferative activity (functional assay). This was compared with wild type cell line for selectivity. MEK kinase assay was performed in the presence and in the absence of ATP to define its allosteric inhibitory mode of action; Effect on ERK phosphorylation was studied to establish its cellular mechanism of action.\n(§2) Colo205, Caki-1, HepG2, HCT116 and HT29 cells were obtained from American Type Culture Collection. Colo205, Caki-1, HepG2 cells were grown in RPMI 1640 medium supplemented with L-glutamine (Invitrogen) and 10% Fetal Bovine Serum (Hyclone) at 37° C. in a humidified, 5% CO2 incubator. HCT116 and HT29 cells were grown in DMEM medium supplemented with L-glutamine (Invitrogen) and 10% Fetal Bovine Serum (Hyclone) at 37° C. in a humidified, 5% CO2 incubator.\n(§3) Proliferation assay was done by plating 2,000 cells/well in 100 μL of DMEM/10% FBS or RPMI/10% media in a 96-well plate and incubated overnight at 37° C. in a humidified, 5% CO2 incubator. Media was replaced with fresh 100 μL of fresh RPMI/10% FBS media or DMEM/10% FBS media containing various concentrations of the compounds. Compounds were added at 3-fold dilutions, concentrations ranging from 3.3 μM to 4.5 nM. After 72 hour incubation with the compounds at 37° C. in a humidified, 5% CO2 incubator, cell viability was measured in a luminometer after the addition of 100 μL/well CellTiterGlo reagent (Promega). IC50s were calculated using SoftMax software."}, "[3]": {"system": "Colo205 cells", "assay": "Proliferation / cell survival assay (CellTiterGlo, 72 hour)", "type": "cell-based", "details": "Homo sapiens, COLO 205; Colo205, BRAF mutation; average of two experiments; read-out: IC50, in vitro cell survival / proliferation", "procedure": "as §1, §2, §3"}, "[4]": {"system": "HCT116 cells", "assay": "Proliferation / cell survival assay (CellTiterGlo, 72 hour)", "type": "cell-based", "details": "Homo sapiens, HCT-116; HCT116, K-Ras mutation; average of two experiments; read-out: IC50, in vitro cell survival / proliferation", "procedure": "as §1, §2, §3"}, "[5]": {"system": "HT29 cells", "assay": "Proliferation / cell survival assay (CellTiterGlo, 72 hour)", "type": "cell-based", "procedure": "as §1, §2, §3"}, "[6]": {"system": "HepG2 cells", "assay": "Proliferation / cell survival assay (CellTiterGlo, 72 hour)", "type": "cell-based", "details": "Homo sapiens; HepG2, N-Ras mutation; average of two experiments; read-out: IC50, in vitro cell survival / proliferation", "procedure": "as §1, §2, §3"}, "[7]": {"details": "Homo sapiens, HT-29, HT29, BRAF mutation, average of two experiments, read-out: IC50, in vitro cell survival / proliferation"}, "[8]": {"details": "Homo sapiens, HT-29, HT29 proliferation, class symbols, read-out: HT29 IC50"}}, "note": "Read-outs that look alike come from different tables or passages of the source.", "data": [{"compound": "O=S1(=O)Nc2c(cc(F)c(F)c2Nc2ccc(I)cc2F)OCC(O)C(O)CC12CC2", "note": "(racemic) [Example 8]", "values": [{"measurement": "IC50", "setting": "[1]", "value": 21, "unit": "nM"}, {"measurement": "IC50", "setting": "[2]", "value": "> 1000", "unit": "nM"}, {"measurement": "IC50", "setting": "[3]", "value": 17, "unit": "nM"}, {"measurement": "IC50", "setting": "[4]", "value": 544, "unit": "nM"}, {"measurement": "IC50", "setting": "[5]; [7]", "value": 21, "unit": "nM"}, {"measurement": "IC50", "setting": "[5]; [8]", "value": "< 100", "unit": "nM"}, {"measurement": "IC50", "setting": "[6]", "value": 15, "unit": "nM"}]}, {"compound": "O=S1(=O)Nc2c(cc(F)c(F)c2Nc2ccc(I)cc2F)OCC(O)C(O)CC12CC2", "note": "(single isomer, unassigned) [Example 8a]", "values": [{"measurement": "IC50", "setting": "[5]; HT29 proliferation, class symbols, read-out: HT29 IC50", "value": "< 100", "unit": "nM"}]}, {"compound": "O=S1(=O)Nc2c(cc(F)c(F)c2Nc2ccc(I)cc2F)OCC(O)C(O)CC12CC2", "note": "(single isomer, unassigned) [Example 8b]", "values": [{"measurement": "IC50", "setting": "[5]; [8]", "value": "100 to 500", "unit": "nM"}]}, {"compound": "O=S1(=O)Nc2c(cc(F)c(F)c2Nc2ccc(I)cc2F)OC/C=C/CC12CC2", "note": "[Example 1]", "values": [{"measurement": "IC50", "setting": "[5]; [8]", "value": "100 to 500", "unit": "nM"}]}, {"compound": "O=S1(=O)Nc2c(cc(F)c(F)c2Nc2ccc(Br)cc2F)OCC(O)C(O)CC12CC2", "note": "(centres unmarked) [Example 9]", "values": [{"measurement": "IC50", "setting": "[5]; [8]", "value": "> 500", "unit": "nM"}]}, {"compound": "O=S1(=O)Nc2c(cc(F)c(F)c2Nc2ccc(I)cc2)OCC(O)C(O)CC12CC2", "note": "(centres unmarked) [Example 10]", "values": [{"measurement": "IC50", "setting": "[5]; [8]", "value": "100 to 500", "unit": "nM"}]}, {"compound": "O=S1(=O)Nc2c(cc(F)c(F)c2Nc2ccc(I)cc2Cl)OCC(O)C(O)CC12CC2", "note": "(centres unmarked) [Example 11]", "values": [{"measurement": "IC50", "setting": "[5]; [8]", "value": "100 to 500", "unit": "nM"}]}, {"compound": "O=S1(=O)Nc2c(Nc3ccc(I)cc3F)cc(F)cc2OCC(O)C(O)CC12CC2", "note": "(centres unmarked) [Example 13]", "values": [{"measurement": "IC50", "setting": "[5]; [8]", "value": "< 100", "unit": "nM"}]}, {"compound": "COc1cc(F)c(NS(=O)(=O)C2(CC(O)CO)CC2)c(Nc2ccc(I)cc2F)c1F", "note": "(centres unmarked) [Example 15, N-(3,6-difluoro-2-(2-fluoro-4-iodophenylamino)-4-methoxyphenyl)-1-(2,3-dihydroxypropyl)cyclopropane-1-sulfonamide]", "values": [{"measurement": "IC50", "setting": "[5]; [8]", "value": "100 to 500", "unit": "nM"}]}, {"compound": "COc1cc(F)c(NS(=O)(=O)C2(CC(O)CO)CC2)c(Nc2ccc(Br)cc2F)c1F", "note": "(centres unmarked) [Example 16]", "values": [{"measurement": "IC50", "setting": "[5]; [8]", "value": "> 500", "unit": "nM"}]}, {"compound": "COc1cc(F)c(NS(=O)(=O)C2(CC(O)CO)CC2)c(Nc2ccc(I)cc2F)c1", "note": "(centres unmarked) [Example 17]", "values": [{"measurement": "IC50", "setting": "[5]; [8]", "value": "< 100", "unit": "nM"}]}, {"compound": "O=S1(=O)Nc2c(cc(F)c(F)c2Nc2ccc(I)cc2F)OCCCCC12CC2", "note": "[Example 19]", "values": [{"measurement": "IC50", "setting": "[5]; [8]", "value": "> 500", "unit": "nM"}]}, {"compound": "COc1cc(F)c(F)c(Nc2ccc(I)cc2F)c1NS(=O)(=O)C1(C[C@H](O)CO)CC1", "note": "[RDEA 119, reference compound]", "values": [{"measurement": "IC50", "setting": "[2]", "value": "> 1000", "unit": "nM"}, {"measurement": "IC50", "setting": "[3]", "value": 20, "unit": "nM"}, {"measurement": "IC50", "setting": "[4]", "value": 461, "unit": "nM"}, {"measurement": "IC50", "setting": "[5]; [7]", "value": 20, "unit": "nM"}, {"measurement": "IC50", "setting": "[6]", "value": 17, "unit": "nM"}]}]}
